From ChEMBL document CHEMBL4346657, “Anticancer activity, dual prooxidant/antioxidant effect and apoptosis induction profile of new bichalcophene-5-carboxamidines” (Eur J Med Chem, 2019)
Active and inactive are the calls of the source. The calls are words filed in the database; no cut-off is given here.

How the values were obtained:
[1] = Haemolytic activity in human erythrocytes assessed as induction of hemolysis at 10 mM after 30 mins relative to H202; type: cell-based, Erythrocyte; settings: read-out: Activity
[2] = Haemolytic activity in human erythrocytes assessed as induction of hemolysis at 5 mM after 30 mins relative to H202; type: cell-based, Erythrocyte; settings: read-out: Activity
[3] = Haemolytic activity in human erythrocytes assessed as induction of hemolysis at 2.5 mM after 30 mins relative to H202; type: cell-based, Erythrocyte; settings: erythrocytes, read-out: Activity
Erythrocyte [4] = experiment: (§1) Haemolytic activity in human erythrocytes assessed as induction of hemolysis at 1.25 mM after 30 mins relative to H202; type: cell-based; settings: erythrocyte, 0.5 h, 1250 µM
Erythrocyte [5] = experiment: (§2) Haemolytic activity in human erythrocytes assessed as induction of hemolysis at 0.625 mM after 30 mins relative to H202; type: cell-based; settings: erythrocyte, 0.5 h, 625 µM
[6] = Antioxidant activity assessed as DPPH radical scavenging activity incubated in dark for 30 mins by spectrophotometric method relative to ascorbic acid; type: functional
[7] = Antioxidant activity assessed as ABTS radical scavenging activity by spectrophotometric method relative to ascorbic acid; type: functional
WI-38 = experiment: Cytotoxicity activity against human WI38 cells assessed as reduction in cell viability measured after 48 hrs by MTT assay; type: cell-based; settings: WI-38, 48 h
Homo sapiens = organism: Homo sapiens; experiment: (§3) Selectivity index, ratio of IC50 for human WI38 cells to GI50 for human NCI60 cells
HCT-116 [8] = experiment: Induction of apoptosis in human HCT116 cells assessed as increase in caspase 3 mRNA expression at 100 nM after 6 hrs hrs by SYBR green dye-based qRT-PCR analysis relative to control; type: functional
HCT-116 [9] = experiment: Induction of apoptosis in human HCT116 cells assessed as increase in caspase 9 mRNA expression at 100 nM after 6 hrs hrs by SYBR green dye-based qRT-PCR analysis relative to control; type: functional
HCT-116 [10] = experiment: Induction of apoptosis in human HCT116 cells assessed as increase in p53 mRNA expression at 100 nM after 6 hrs hrs by SYBR green dye-based qRT-PCR analysis relative to control; type: functional
HCT-116 [11] = experiment: […] in CDK1 mRNA expression in human HCT116 cells at 100 nM after 6 hrs hrs by SYBR green dye-based qRT-PCR analysis relative to control; type: functional
HCT-116 [12] = experiment: Reduction in CDK1 mRNA expression in human HCT116 cells at 100 nM after 6 hrs hrs by SYBR green dye-based qRT-PCR analysis relative to control; type: functional; settings: HCT-116, 6 h
[13] = as §3
K562 = experiment: Antiproliferative activity against human K562 cells assessed as growth inhibition after 48 hrs by sulforhodamine B assay; type: functional, cell-based; settings: K562, 48 h
[14] = as §1; type: cell-based, Erythrocyte; settings: erythrocytes, read-out: Activity
[15] = Antioxidant activity assessed as DPPH radical scavenging activity incubated in dark for 30 mins by spectrophotometric method relative to control; type: functional; set-up: concentration or dose not given beside the values
[16] = Antioxidant activity assessed as ABTS radical scavenging activity by spectrophotometric analysis relative to control; type: functional; set-up: concentration or dose not given beside the values; settings: dose or concentration not given here
[17] = Antioxidant activity assessed as hydroxyl radical scavenging activity after 1 hr by salicylic acid-based Fenton reaction assay; type: functional
[18] = Pro-oxidant activity assessed as increase in bleomycin-Fe2+ induced calf thymus DNA damage at 2 mM after 1 hr by thiobarbituric acid based absorbance analysis
[19] = as §2; type: cell-based, Erythrocyte; settings: erythrocytes, read-out: Activity

Structure (SMILES) | hemolysis at 0.5 h, 10000 µM [1] | hemolysis at 0.5 h, 5000 µM [2] | hemolysis at 0.5 h, 2500 µM [3] | Activity (Erythrocyte [4]) | Activity (Erythrocyte [5]) | fold change (FC) [6] | fold change (FC) [7] | IC50 (WI-38) | fold change (FC) (HCT-116 [8]) | fold change (FC) (HCT-116 [9]) | fold change (FC) (HCT-116 [10]) | fold change (FC) (HCT-116 [11]) | Selectivity Index [13] | IC50 (K562; read-out: IC50) | IC50 (K562; read-out: pIC50 (converted)) | hemolysis at 0.5 h, 1250 µM [14] | inhibition [15] | inhibition [16] | Activity [17] | Activity [18] | other results
O=C1O[C@H]([C@@H](O)CO)C(O)=C1O [ASCORBIC ACID] | 16.3% | 8% | 4% | Non-Toxic | Non-Toxic | 1 | 1 |  |  |  |  |  |  |  |  |  |  |  |  |  | 
O=c1[nH]cc(F)c(=O)[nH]1 [FLUOROURACIL] |  |  |  |  |  |  |  | 8.4 µM | 3.92 | 4.53 | 1.48 | 0.48 |  |  |  |  |  |  |  |  | Selectivity Index (Homo sapiens): inactive; inhibition at 0.1 µM (HCT-116 [12]): 50 to 52%
COc1cccc(-c2ccc(-c3ccc(C(=N)N)s3)s2)c1 | 79% | 39% | 16.1% |  | Non-Toxic | 0.5 | 0.6 | 77.2 µM | 3.71 | 1.01 | 0.89 | 0.93 | 148.4 | 0.18 µM | 19500 µM | 3.1% | 47.5% | 58.2% | Active | Active | 
COc1ccc(-c2ccc(-c3ccc(C(=N)N)s3)s2)cc1 | 92.7% | 63.7% | 41% |  |  | 0.6 | 0.6 | 12.9 µM | 2.51 | 2.38 | 1.06 | 0.91 | 43 | 0.18 µM | 19500 µM | 17.3% | 51.9% | 59.2% | Active | Active | hemolysis at 0.5 h, 625 µM [19]: 4%
N=C(N)c1ccc(-c2ccc(-c3ccccc3)s2)s1 | 85.1% | 56.7% | 15.3% | Non-Toxic | Non-Toxic | 0.6 | 0.7 | 49.1 µM | 2.39 | 2.47 | 1.1 | 0.88 | 38.3 | 0.24 µM | 38000 µM |  | 53% | 61.7% | Active | Active | 
